Reference: ChEMBL document CHEMBL1201862, “PubChem BioAssay data set” (2004)
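The compound was tested at five concentrations on cells cultured in 96-well plates, with a 48-hour exposure period. At the GI50, growth is halved.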 Active and inactive are the calls of the source. Rule as the data show it: active = GI50 up to about 1.1 µM and inactive = higher.

Key:
Assay in all cases: growth of human tumour cells (NCI), 48 h
786-0 = system: 786-0
CAKI-1 = system: CAKI-1
CCRF-CEM = system: CCRF-CEM
COLO 205 = system: COLO 205
DU-145 = system: DU-145
EKVX = system: EKVX
HCC 2998 = system: HCC 2998
HL-60 = system: HL-60
HOP-92 = system: HOP-92
Hs-578T = system: Hs-578T
KM12 = system: KM12
MDA-MB-231 = system: MDA-MB-231
Malme-3M = system: Malme-3M
OVCAR-4 = system: OVCAR-4
OVCAR-5 = system: OVCAR-5
SF-268 = system: SF-268
SK-MEL-2 = system: SK-MEL-2
SNB-75 = system: SNB-75
T47D = system: T47D
U-251 = system: U-251

SMILES	GI50 (786-0)	GI50 (CAKI-1)	GI50 (CCRF-CEM)	GI50 (COLO 205)	GI50 (DU-145)	GI50 (EKVX)	GI50 (HCC 2998)	GI50 (HL-60)	GI50 (HOP-92)	GI50 (Hs-578T)	GI50 (KM12)	GI50 (MDA-MB-231)	GI50 (Malme-3M)	GI50 (OVCAR-4)	GI50 (OVCAR-5)	GI50 (SF-268)	GI50 (SK-MEL-2)	GI50 (SNB-75)	GI50 (T47D)	GI50 (U-251)
CC(=O)OCC1=C(C)C[C@H]([C@@H](COC(C)=O)C2CCC3C4C[C@H]5O[C@]56CC=CC(=O)[C@]6(C)C4CC[C@@]32C)OC1=O (stereo not given in full)	0.19 µM (active)	0.671 µM (active)	0.0191 µM (active)	0.307 µM (active)	0.414 µM (active)	0.465 µM (active)	0.573 µM (active)	0.0384 µM (active)	0.352 µM (active)	1 µM (active)	0.138 µM (active)	0.376 µM (active)	0.274 µM (active)	0.359 µM (active)	1.23 µM (inactive)	0.379 µM (active)	0.716 µM (active)	2.16 µM (inactive)	0.353 µM (active)	0.329 µM (active)
CN(CCNC(=O)c1nn(-c2ccccc2)c2c1ccc1ccccc12)CCNC(=O)c1nn(-c2ccccc2)c2c1ccc1ccccc12	1.67 µM (inactive)	3.33 µM (inactive)	2.9 µM (inactive)	1.54 µM (inactive)	4.85 µM (inactive)	1.98 µM (inactive)	1.53 µM (inactive)	1.95 µM (inactive)	1.73 µM (inactive)	2.14 µM (inactive)	2.37 µM (inactive)	1.29 µM (inactive)	2.23 µM (inactive)	3.39 µM (inactive)	4.49 µM (inactive)	2.38 µM (inactive)	1.86 µM (inactive)	2.18 µM (inactive)	2.41 µM (inactive)	1.57 µM (inactive)
N/N=C(/CC(O)(C(F)(F)F)C(F)(F)F)c1ccccc1	> 10 µM (inactive)	> 10 µM (inactive)	> 10 µM (inactive)	> 10 µM (inactive)	> 10 µM (inactive)	> 10 µM (inactive)	> 10 µM (inactive)	> 10 µM (inactive)	> 10 µM (inactive)	> 10 µM (inactive)	> 10 µM (inactive)	> 10 µM (inactive)	> 10 µM (inactive)	> 10 µM (inactive)	> 10 µM (inactive)	> 10 µM (inactive)	> 10 µM (inactive)	> 10 µM (inactive)	> 10 µM (inactive)	> 10 µM (inactive)
CC(/C=N/N(C)C1=NCCCCN1)=N/N(C)C1=NCCCCN1	> 100 µM (inactive)	> 100 µM (inactive)	> 100 µM (inactive)	> 100 µM (inactive)	> 100 µM (inactive)	> 100 µM (inactive)	> 100 µM (inactive)	> 100 µM (inactive)	> 100 µM (inactive)	> 100 µM (inactive)	> 100 µM (inactive)	> 100 µM (inactive)	> 100 µM (inactive)	> 100 µM (inactive)	> 100 µM (inactive)	> 100 µM (inactive)	> 100 µM (inactive)	> 100 µM (inactive)	> 100 µM (inactive)	> 100 µM (inactive)
COc1ccccc1NC(=S)N/N=C(/c1ccccc1)c1ccccn1	0.103 µM (active)	< 0.0421 µM (active)	0.0316 µM (active)	0.0173 µM (active)	0.325 µM (active)	0.0968 µM (active)	5.97 µM (inactive)	< 0.0131 µM (active)	0.522 µM (active)	7.05 µM (inactive)	0.151 µM (active)	0.0214 µM (active)	0.167 µM (active)	0.71 µM (active)	0.0635 µM (active)	0.144 µM (active)	4.4 µM (inactive)	0.998 µM (active)	< 0.0426 µM (active)	0.0635 µM (active)
Cc1cc(N(CCC#N)CCC#N)ccc1C(=N/NC(=O)c1cc(Cl)ccc1O)/N=N/c1cccc([N+](=O)[O-])c1	29 µM (inactive)	27 µM (inactive)	5.68 µM (inactive)	16.7 µM (inactive)	27.2 µM (inactive)	25.1 µM (inactive)	28.8 µM (inactive)	14.7 µM (inactive)	38.2 µM (inactive)	38.9 µM (inactive)	23.1 µM (inactive)	14.5 µM (inactive)	34 µM (inactive)	20.4 µM (inactive)	35 µM (inactive)	18.7 µM (inactive)	21.7 µM (inactive)	27.5 µM (inactive)	19.4 µM (inactive)	35.9 µM (inactive)
